Results on 20 compounds are retold here after patent US8501732B2, “Aminomethyl quinolone compounds” (Hoffmann-La Roche Inc., priority 2011, dated 2013).

Assay [1] deals with JNK1 (Homo sapiens (Human), UniProt P45983). The assay can be described thus: In Vitro JNK1 Assay (TR-FRET, phosphorylation of GST-c-Jun). The class given is biochemical. As to conditions: 0.2 nM active JNK1 kinase, 26.7 nM GST-c-Jun, 2 μM ATP, 30 min at room temperature. Put shortly: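 IC50 derived from percent inhibition across 10 serially diluted concentrations, with TR-FRET detection of phospho-c-Jun via an anti-phospho-c-Jun antibody after EDTA stop. Substrate was GST-c-Jun 1-79, reacted 30 min at room temperature in pH 7.0 HEPES buffer with MgCl2, DTT, vanadate and BSA.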

In assay [2] the test system is phospho(Ser63)-c-jun in HK-2 cells. The assay can be described thus: Cell-Based Assay for JNK Inhibitors (in-cell ELISA, phospho(Ser63)-c-jun after TNFα). The following applies: HK-2 cells (human proximal tubule cells), 60 minutes compound, then 10 ng/mL TNFα for 30 minutes. The procedure: Cell-Based Assay for JNK Inhibitors
The cell-based assay employed the in-cell ELISA method to determine the ability of compounds to prevent the generation of phospho(Ser63)-c-jun in HK-2 cells (human proximal tubule cells) in response to stimulation with tumor necrosis factor α (TNFα). In brief, for quantification of phospho(Ser63)-c-jun, the cells (in 96-well format) were fixed and permeablized then incubated sequentially with a rabbit anti-phospho-c-jun First Antibody specific for the presence of the phospho-Ser63 epitope and a donkey anti-rabbit IgG Second Antibody linked to horseradish peroxidase (HRP) for colorimetric quantitation of binding. […] Blank wells received no TNFα stimulation or compound. Additional Control wells received TNFα stimulation, but no compound.
Stock cultures of HK-2 cells (ATCC, Manassas, Va.) were grown under a 5% CO2/[…] atmosphere at 37 degrees C. in Keratinocyte-SFM medium (KSFM, Invitrogen, Grand Island, N.Y.) containing 5 μg/L epidermal growth factor and 5 mg/L bovine pituitary extract (both supplied with the medium), additionally supplemented with 10% (v/v) fetal calf serum (FCS; Invitrogen, Grand Island, N.Y.) and 1% (v/v) antibiotic-antimycotic (ABAM: Sigma, St. Louis, Mo.). For assays, cells were seeded in collagen coated 96-well polystyrene plates (BD Biosciences, Franklin Lakes, N.J.) at a density of 40,000 cells/well and cultured for 24 h in the same medium (100 μL/well) followed by a further 16-24 h in 100 μL of similar medium, but without FCS. […] Plates were then allowed to stand at room temperature for 20 minutes before being washed with 200 μL/well of PBS. (Further steps were performed immediately or the plates were stored at 4 degrees C. and the assay completed the next day.) To each well was added 100 μL 1% (v/v) TritonX-100 (Sigma, St. Louis, Mo.) in PBS followed by 20 minutes standing at room temperature, washing with 200 μL/well PBS, the addition of 100 μL/well of Quenching buffer (1% (v/v) hydrogen peroxide (Sigma, St. Louis, Mo.) and 0.1% (w/v) sodium azide (Fisher Scientific, Fair Lawn, N.J.)) in PBS and a further 20 minutes at room temperature. Plates were then washed twice with 200 μL/well of 0.1% (v/v) Tween-20 (Teknova, Hollister, Calif.) in PBS before addition of 200 μL/well of 2% BSA/0.1% Tween-20 in PBS and a further 1 hour at room temperature. […] After a further one hour, rabbit anti-phospho-c-jun-Ser63 is added directly to the solution in the Blank wells resulting in 1:250 dilution of this antibody. Plates were then placed on a slowly rotating platform at 4 degrees C. overnight. Wells were then washed thrice with 200 μL/well PBS/0.1% Tween-20. After addition of the third wash, the plates were placed on a slowly rotating platform for 15 minutes at room temperature. The final PBS/Tween20 wash was then replaced with 100 μL/well of donkey anti-rabbit HRP-labeled Second Antibody (Jackson ImmunoResearch Laboratory, West Grove, Pa.) diluted 1:10,000 in Antibody Dilution Buffer and the plates placed on a slowly rotating platform for 1 hour at room temperature. Wells were then washed four times with 200 μL/well PBS/0.1% Tween-20, including slow rotation for 30 minutes for the third wash and 10 minutes for the final wash. The wells were then washed once with 200 μL PBS without Tween-20. […] Absorbance was determined at a 450 nm wavelength using a spectrophotometer (Molecular Devices SpectraMax 250).

Chain of JNK1 (P45983 whole entry): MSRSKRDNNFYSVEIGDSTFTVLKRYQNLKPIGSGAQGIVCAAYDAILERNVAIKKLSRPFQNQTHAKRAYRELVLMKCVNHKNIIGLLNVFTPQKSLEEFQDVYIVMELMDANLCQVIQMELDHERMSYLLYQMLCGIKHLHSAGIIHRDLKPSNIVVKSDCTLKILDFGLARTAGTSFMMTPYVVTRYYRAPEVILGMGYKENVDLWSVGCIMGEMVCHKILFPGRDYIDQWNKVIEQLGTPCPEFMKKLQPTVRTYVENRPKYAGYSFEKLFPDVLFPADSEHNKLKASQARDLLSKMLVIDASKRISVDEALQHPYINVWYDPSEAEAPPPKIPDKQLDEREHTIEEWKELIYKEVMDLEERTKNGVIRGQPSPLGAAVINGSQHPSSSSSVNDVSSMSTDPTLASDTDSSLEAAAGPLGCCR

In assay [1], `O=C(NCc1cn(-c2ccccc2)c2cc(Cl)ccc2c1=O)c1ccc(N2CCOCC2)nc1` [Example I-40, N-(7-Chloro-4-oxo-1-phenyl-1,4-dihydro-quinolin-3-ylmethyl)-6-morpholin-4-yl-nicotinamide] came in with a concentration for half-maximal inhibition (IC50) of 84 nM. This compound showed an EC50 in assay [2] of 100000 nM.

For the compound `CN(C)c1cc(C(=O)NCc2cn(-c3ccccc3)c3cc(Cl)ccc3c2=O)ccn1` [Example I-41, N-(7-Chloro-4-oxo-1-phenyl-1,4-dihydro-quinolin-3-ylmethyl)-2-dimethyl amino-isonicotinamide], it took 88 nM to reach half-maximal inhibition in assay [1] (IC50). The EC50 in assay [2] amounted to 28000 nM.

Compound `O=C(NCc1cn(-c2ccccc2)c2cc(Cl)ccc2c1=O)c1ccc2scnc2c1` [Example I-42, Benzothiazole-5-carboxylic acid (7-chloro-4-oxo-1-phenyl-1,4-dihydro-quinolin-3-ylmethyl)-amide] gave an IC50 in assay [1] of 89 nM. Besides, the EC50 in assay [2] was 25000 nM.

As for `O=C(NCc1cn(-c2ccccc2)c2cc(Cl)ccc2c1=O)c1ccc(-c2ncn[nH]2)cc1` [Example I-43, N-(7-Chloro-4-oxo-1-phenyl-1,4-dihydro-quinolin-3-ylmethyl)-4-(2H-[1,2,4]triazol-3-yl)-benzamide], half-maximal inhibition in assay [1] (IC50) was put at 100 nM. In assay [2], this compound displayed an EC50 of 100000 nM.

`COc1ccc(C(=O)NCc2cn(-c3ccccc3)c3cc(Cl)ccc3c2=O)cc1OC` [Example I-57, N-(7-Chloro-4-oxo-1-phenyl-1,4-dihydro-quinolin-3-ylmethyl)-3,4-dimethoxy-benzamide] returned an IC50 in assay [1] of 80 nM. Moreover, in assay [2], the EC50 was 26000 nM.

`CC(C)(C)OC(=O)N1CC2CC1CN2c1ccc(C(=O)NCc2cn(-c3ccccc3)c3cc(Cl)ccc3c2=O)cn1` (stereo not shown) [Example I-62, 5-{5-[(7-Chloro-4-oxo-1-phenyl-1,4-dihydro-quinolin-3-ylmethyl)-carbamoyl]-pyridin-2-yl}-2,5-diaza-bicyclo[2.2.1]heptane-2-carboxylic acid tert-butyl ester]: 11 nM corresponded to half-maximal inhibition in assay [1] (IC50). Also, the EC50 in assay [2] came to 13000 nM.

`O=C(NCc1cn(-c2ccccc2)c2cc(Cl)ccc2c1=O)c1ccc(N2CCC(CCO)CC2)nc1` [Example I-63, 4-(2-Hydroxy-ethyl)-3,4,5,6-tetrahydro-2H-[1,2′]bipyridinyl-5′-carboxylic acid (7-chloro-4-oxo-1-phenyl-1,4-dihydro-quinolin-3-ylmethyl)-amide] showed an IC50 in assay [1] of 17 nM. Further, in assay [2], the EC50 stood at 3800 nM.

As for `O=C(NCc1cn(-c2ccccc2)c2cc(Cl)ccc2c1=O)c1ccc(N(CCO)CCO)nc1` [Example I-64, 6-[Bis-(2-hydroxy-ethyl)-amino]-N-(7-chloro-4-oxo-1-phenyl-1,4-dihydro-quinolin-3-ylmethyl)-nicotinamide], in assay [1], the IC50 amounted to 18 nM. In assay [2], this compound came in with an EC50 of 100000 nM.

With `O=C(NCc1cn(-c2ccccc2)c2cc(Cl)ccc2c1=O)c1ccc(N2CCCCC2)nc1` [Example I-65, 3,4,5,6-Tetrahydro-2H-[1,2′]bipyridinyl-5′-carboxylic acid (7-chloro-4-oxo-1-phenyl-1,4-dihydro-quinolin-3-ylmethyl)-amide], the IC50 in assay [1] is 19 nM. Further, it took 40000 nM to reach a half-maximal effect in assay [2] (EC50).

With `CN(CCO)c1ccc(C(=O)NCc2cn(-c3ccccc3)c3cc(Cl)ccc3c2=O)cn1` [Example I-66, N-(7-Chloro-4-oxo-1-phenyl-1,4-dihydro-quinolin-3-ylmethyl)-6-[(2-hydroxy-ethyl)-methyl-amino]-nicotinamide], in assay [1], the IC50 worked out at 19 nM. For the same compound, in assay [2], the midpoint of the response, the EC50, lay at 29000 nM.

In assay [1], `O=C(NCc1cn(-c2ccccc2)c2cc(Cl)ccc2c1=O)c1ccc(N2CCC(CO)CC2)nc1` [Example I-67, 4-Hydroxymethyl-3,4,5,6-tetrahydro-2H-[1,2′]bipyridinyl-5′-carboxylic acid (7-chloro-4-oxo-1-phenyl-1,4-dihydro-quinolin-3-ylmethyl)-amide] gave an IC50 of 20 nM. In assay [2], this compound showed an EC50 of 6300 nM.

In turn, `O=C(NCc1cn(-c2ccccc2)c2cc(Cl)ccc2c1=O)c1ccc(N2CCCCCC2)nc1` [Example I-68, 6-Azepan-1-yl-N-(7-chloro-4-oxo-1-phenyl-1,4-dihydro-quinolin-3-ylmethyl)-nicotinamide] came in with an IC50 in assay [1] of 21 nM. Also, a half-maximal response in assay [2] (EC50) required 17000 nM.

In assay [1], `CS(=O)(=O)C1CCN(c2ccc(C(=O)NCc3cn(-c4ccccc4)c4cc(Cl)ccc4c3=O)cn2)CC1` [Example I-69, 4-Methanesulfonyl-3,4,5,6-tetrahydro-2H-[1,2′]bipyridinyl-5′-carboxylic acid (7-chloro-4-oxo-1-phenyl-1,4-dihydro-quinolin-3-ylmethyl)-amide] came in with an IC50 of 24 nM. In addition, in assay [2], a half-maximal effect (EC50) was put at 39000 nM.

In assay [1], `O=C(NCc1cn(-c2ccccc2)c2cc(Cl)ccc2c1=O)c1ccc(N2CC[C@@H](O)C2)nc1` [Example I-70] came in with an IC50 of 24 nM. This compound also returned an EC50 in assay [2] of 33000 nM.

As to `COC1CCN(c2ccc(C(=O)NCc3cn(-c4ccccc4)c4cc(Cl)ccc4c3=O)cn2)CC1` [Example I-71, 4-Methoxy-3,4,5,6-tetrahydro-2H-[1,2′]bipyridinyl-5′-carboxylic acid (7-chloro-4-oxo-1-phenyl-1,4-dihydro-quinolin-3-ylmethyl)-amide], the midpoint of inhibition in assay [1], the IC50, lay at 26 nM. In addition, in assay [2], the midpoint of the response, the EC50, lay at 17000 nM.

Compound `CNC(=O)C1CCN(c2ccc(C(=O)NCc3cn(-c4ccccc4)c4cc(Cl)ccc4c3=O)cn2)CC1` [Example I-72, 3,4,5,6-Tetrahydro-2H-[1,2′]bipyridinyl-4,5′-dicarboxylic acid 5′-[(7-chloro-4-oxo-1-phenyl-1,4-dihydro-quinolin-3-ylmethyl)-amide]-4-methylamide] returned an IC50 in assay [1] of 27 nM. In assay [2], this compound returned an EC50 of 100000 nM.

As for `NC(=O)N1CCN(c2ccc(C(=O)NCc3cn(-c4ccccc4)c4cc(Cl)ccc4c3=O)cn2)CC1` [Example I-73, 4-{5-[(7-Chloro-4-oxo-1-phenyl-1,4-dihydro-quinolin-3-ylmethyl)-carbamoyl]-pyridin-2-yl}-piperazine-1-carboxylic acid amide], in assay [1], the IC50 stood at 29 nM. In assay [2], this compound came in with an EC50 of 100000 nM.

For the compound `COCCNc1ccc(C(=O)NCc2cn(-c3ccccc3)c3cc(Cl)ccc3c2=O)cn1` [Example I-74, N-(7-Chloro-4-oxo-1-phenyl-1,4-dihydro-quinolin-3-ylmethyl)-6-(2-methoxy-ethylamino)-nicotinamide], the IC50 in assay [1] stood at 30 nM. It took 27000 nM to reach a half-maximal effect in assay [2] (EC50).

The compound `CN(C)C1CCN(c2ccc(C(=O)NCc3cn(-c4ccccc4)c4cc(Cl)ccc4c3=O)cn2)CC1` [Example I-75, 4-Dimethylamino-3,4,5,6-tetrahydro-2H-[1,2′]bipyridinyl-5′-carboxylic acid (7-chloro-4-oxo-1-phenyl-1,4-dihydro-quinolin-3-ylmethyl)-amide] showed an IC50 in assay [1] of 31 nM. Besides, the EC50 in assay [2] is 14000 nM.

With `O=C(NCc1cn(-c2ccccc2)c2cc(Cl)ccc2c1=O)c1ccc(N2CCC(O)CC2)nc1` [Example I-76, 4-Hydroxy-3,4,5,6-tetrahydro-2H-[1,2′]bipyridinyl-5′-carboxylic acid (7-chloro-4-oxo-1-phenyl-1,4-dihydro-quinolin-3-ylmethyl)-amide], the IC50 in assay [1] is 34 nM. Also, in assay [2], a half-maximal effect (EC50) was put at 48000 nM.
